Source: patent US6818667B2, “Eurotinones, and derivatives thereof, processes for preparing them, and their use” (Aventis Pharma Deutschland GmbH, priority 2001, dated 2004)

Molecular target: KDR kinase (VEGF receptor) (Homo sapiens, UniProt P35968)
Experiment: KDR kinase activity assay (FlashPlate, 33P-ATP phosphorylation of peptide substrate PLCγ1)
Type: biochemical
Conditions: purified enzyme, 5 μM cold ATP, pH 7.4, RT 1 h
Description: The tyrosine kinase receptor KDR is the test target. KDR plays a key role in the growth of endothelium and in angiogenesis and is consequently also involved in the development of tumors. KDR is consequently an important therapeutic target molecule for cancer diseases and other proliferative diseases. In the test, the activity of the KDR kinase is measured on the basis of the phosphorylation of a specific peptide substrate.
The KDR kinase was determined using purified enzyme in 384-well microtiter plates (Coated FlashPlates, NEN Life Science). The enzyme activities were determined by means of phosphorylating a specific peptide substrate. A previously prepared series of dilutions of the eurotinones having concentrations of 100, 50, 25, 12.5, 6.25, 3.125, 1.5625, 0.7813, 0.3906, 0.195, 0.094, 0.047 and 0 μM were pipetted, in the corresponding order, into the experimental assays. The reaction mixture (radioactively labeled ATP, buffer solution at pH 7.4 and enzyme solutions) was then added and the whole was incubated at RT for 1 h.
Enzyme: KDR kinase (VEGF receptor)
50 mM MOPS, pH7.4, 10 mM MgCl2, 2 mM DTT, 2.5 mM EDTA,
ATP solution: 25μCi of ^33P-γ-ATP/ml and 12.5 μM cold ATP
KDR enzyme solution: 3.5 μg/ml in kinase buffer
384-well FlashPlates were coated, at […] and overnight, with 60 μl (1.2 μg/well) of the peptide substrate and then washed 3×with in each case 80 μl of PBS. The plates which had been coated in this way can be stored for a relatively short time at 4° C. and for a longer period at −20° C. […]
The plates were subsequently washed three times with 75 μl of washing solution in each case and the radioactivity is measured over 30 seconds in a MicroBeta counter (Wallac). […]
The activity of the KDR kinase was measured by way of the incorporation of radioactive phosphate from ATP into the substrate, and the inhibitory effect of the eurotinone (IC50) was calculated from this incorporation.
The inhibition was calculated as: […]

Sequence of KDR kinase (VEGF receptor) (P35968 20-1356): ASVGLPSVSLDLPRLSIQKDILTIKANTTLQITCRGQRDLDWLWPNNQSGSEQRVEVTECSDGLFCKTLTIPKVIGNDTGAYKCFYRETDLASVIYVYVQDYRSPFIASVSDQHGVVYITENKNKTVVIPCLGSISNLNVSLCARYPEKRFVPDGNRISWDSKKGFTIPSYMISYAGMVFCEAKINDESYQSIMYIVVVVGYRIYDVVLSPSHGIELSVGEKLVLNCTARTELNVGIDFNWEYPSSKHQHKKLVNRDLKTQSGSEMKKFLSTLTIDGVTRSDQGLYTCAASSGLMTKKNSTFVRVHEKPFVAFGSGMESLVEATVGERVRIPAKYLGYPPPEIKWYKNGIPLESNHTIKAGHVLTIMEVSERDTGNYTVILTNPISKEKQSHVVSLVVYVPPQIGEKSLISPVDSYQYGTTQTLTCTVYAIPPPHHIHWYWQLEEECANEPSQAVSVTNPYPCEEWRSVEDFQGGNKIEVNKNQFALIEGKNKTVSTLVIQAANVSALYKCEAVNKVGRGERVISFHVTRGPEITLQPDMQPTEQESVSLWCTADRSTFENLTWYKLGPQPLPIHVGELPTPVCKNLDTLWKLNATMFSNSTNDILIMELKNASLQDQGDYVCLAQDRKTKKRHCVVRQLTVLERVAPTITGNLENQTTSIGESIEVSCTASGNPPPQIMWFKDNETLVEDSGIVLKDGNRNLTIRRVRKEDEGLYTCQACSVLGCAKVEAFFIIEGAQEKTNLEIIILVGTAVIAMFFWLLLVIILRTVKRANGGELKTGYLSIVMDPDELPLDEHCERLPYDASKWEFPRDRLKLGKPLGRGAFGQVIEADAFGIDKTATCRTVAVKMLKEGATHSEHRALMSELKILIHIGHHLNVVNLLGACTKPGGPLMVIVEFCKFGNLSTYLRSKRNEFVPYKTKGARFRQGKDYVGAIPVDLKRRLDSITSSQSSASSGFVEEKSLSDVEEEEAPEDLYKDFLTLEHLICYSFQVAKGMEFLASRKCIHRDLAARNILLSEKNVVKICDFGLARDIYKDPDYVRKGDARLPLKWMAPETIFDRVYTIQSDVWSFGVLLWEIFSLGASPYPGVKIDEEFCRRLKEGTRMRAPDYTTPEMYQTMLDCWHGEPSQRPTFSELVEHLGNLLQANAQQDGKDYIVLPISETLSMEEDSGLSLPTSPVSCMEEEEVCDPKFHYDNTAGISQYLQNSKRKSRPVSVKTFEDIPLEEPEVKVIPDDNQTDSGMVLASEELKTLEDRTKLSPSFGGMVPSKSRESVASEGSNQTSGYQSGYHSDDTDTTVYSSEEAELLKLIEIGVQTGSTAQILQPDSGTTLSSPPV

IC50 | Structure (SMILES)
155 µM | COc1cc(O)cc2c1OC(=O)c1c(OC)cc(C)c(O)c1C2 [2,12-dimethyleurotinone (compound 2), 2,12-dimethyleurotinone]
18 µM | COc1cc(O)cc2c1OC(=O)c1c(O)cc(C)c(O)c1C2 [2-methyleurotinone (compound 3), 2-methyleurotinone]
22 µM | Cc1cc(O)c2c(c1O)Cc1cc(O)cc(O)c1OC2=O [eurotinone (compound 1), eurotinone]
